Laboratory results published in patent US12239627B2, “Method of treating conditions related to the PGI2 receptor” (Arena Pharmaceuticals, Inc., priority 2014, dated 2025).

Test: Phase 1 single ascending dose study with healthy subjects (adverse events)
Assay type: in vivo, human
Settings: for No. of subjects reporting AEs / No. of subjects with AE Abdominal pain / No. of subjects with AE Cough / No. of subjects with AE Diarrhoea / No. of subjects with AE Dizziness / No. of subjects with AE Flushing / No. of subjects with AE Headache / No. of subjects with AE Jaw pain / No. of subjects with AE Muscle spasm / No. of subjects with AE Nausea / No. of subjects with AE Neck pain / No. of subjects with AE Oropharyngeal pain / No. of subjects with AE Pain in extremity / No. of subjects with AE Photophobia / No. of subjects with AE Vomiting / Number of Subjects Reporting AEs By Most Direct Relationship to Study Treatment: Definitely not related / Number of Subjects Reporting AEs By Most Direct Relationship to Study Treatment: Possibly related / Number of Subjects Reporting AEs By Most Direct Relationship to Study Treatment: Probably not related / Number of Subjects Reporting AEs By Most Direct Relationship to Study Treatment: Probably related: 6 subjects
Experimental: This study was a phase 1, randomized, double-blind, placebo-controlled study of four cohorts of 8 subjects each (2 subjects were assigned to receive placebo, and 6 to receive Compound 1). Each cohort was assigned to receive a single dose level of blinded study medication in an ascending dose fashion; dosing began at 0.1 mg.
All enrolled subjects received a single oral dose of study medication (Compound 1 or placebo). Dose escalation was slowed or discontinued when predefined safety criteria based on peak plasma exposure levels, blood pressure changes, or adverse events (AEs) were met. […] Two lower dose cohorts were added, in which the doses of Compound 1were 0.05 mg and 0.03 respectively.
After each cohort was dosed, the following safety parameters were monitored: vital signs, clinical laboratory tests to include serum chemistry, hematology, and urinalysis, 12-lead ECG, plasma Compound 1 concentration, and AEs. Pharmacokinetic parameters were monitored and calculated for Compound 1.

O=C(O)COC[C@H]1CC[C@H](COC(=O)N(c2ccccc2)c2ccc(Cl)cc2)CC1 [Compound 1, 2-(((1r,4r)-4-(((4-chlorophenyl)(phenyl)carbamoyloxy)methyl)cyclohexyl)methoxy)acetic acid]
AEs on which dose escalation was discontinued (2nd cohort, single oral dose 0.2 mg): prolonged nausea and vomiting that was severe in intensity | Tolerability of the dose (single dose 0.1 mg, some subjects experienced nausea, vomiting, headache, and jaw pain): tolerated | Tolerability of the dose (single dose 0.2 mg): Intolerable AEs | No. of subjects reporting AEs (single oral dose 0.03 mg): 2 subjects | No. of subjects with AE Abdominal pain (single oral dose 0.03 mg): 0 subjects | No. of subjects with AE Cough (single oral dose 0.03 mg): 0 subjects | No. of subjects with AE Diarrhoea (single oral dose 0.03 mg): 0 subjects | No. of subjects with AE Dizziness (single oral dose 0.03 mg): 0 subjects | No. of subjects with AE Flushing (single oral dose 0.03 mg): 0 subjects | No. of subjects with AE Headache (single oral dose 0.03 mg): 2 subjects | No. of subjects with AE Jaw pain (single oral dose 0.03 mg): 0 subjects | No. of subjects with AE Muscle spasm (single oral dose 0.03 mg): 0 subjects | No. of subjects with AE Nausea (single oral dose 0.03 mg): 0 subjects | No. of subjects with AE Neck pain (single oral dose 0.03 mg): 0 subjects | No. of subjects with AE Oropharyngeal pain (single oral dose 0.03 mg): 0 subjects | No. of subjects with AE Pain in extremity (single oral dose 0.03 mg): 0 subjects | No. of subjects with AE Photophobia (single oral dose 0.03 mg): 0 subjects | No. of subjects with AE Vomiting (single oral dose 0.03 mg): 0 subjects | Number of Subjects Reporting AEs By Most Direct Relationship to Study Treatment: Definitely not related (single oral dose 0.03 mg): 0 subjects | Number of Subjects Reporting AEs By Most Direct Relationship to Study Treatment: Possibly related (single oral dose 0.03 mg): 2 subjects | Number of Subjects Reporting AEs By Most Direct Relationship to Study Treatment: Probably not related (single oral dose 0.03 mg): 0 subjects | Number of Subjects Reporting AEs By Most Direct Relationship to Study Treatment: Probably related (single oral dose 0.03 mg): 0 subjects | No. of subjects reporting AEs (single oral dose 0.05 mg): 5 subjects | No. of subjects with AE Abdominal pain (single oral dose 0.05 mg): 1 subjects | No. of subjects with AE Cough (single oral dose 0.05 mg): 0 subjects | No. of subjects with AE Diarrhoea (single oral dose 0.05 mg): 0 subjects | No. of subjects with AE Dizziness (single oral dose 0.05 mg): 0 subjects | No. of subjects with AE Flushing (single oral dose 0.05 mg): 1 subjects | No. of subjects with AE Headache (single oral dose 0.05 mg): 5 subjects | No. of subjects with AE Jaw pain (single oral dose 0.05 mg): 2 subjects | No. of subjects with AE Muscle spasm (single oral dose 0.05 mg): 0 subjects | No. of subjects with AE Nausea (single oral dose 0.05 mg): 1 subjects | No. of subjects with AE Neck pain (single oral dose 0.05 mg): 0 subjects | No. of subjects with AE Oropharyngeal pain (single oral dose 0.05 mg): 0 subjects | No. of subjects with AE Pain in extremity (single oral dose 0.05 mg): 0 subjects | No. of subjects with AE Photophobia (single oral dose 0.05 mg): 1 subjects | No. of subjects with AE Vomiting (single oral dose 0.05 mg): 0 subjects | Number of Subjects Reporting AEs By Most Direct Relationship to Study Treatment: Definitely not related (single oral dose 0.05 mg): 0 subjects | Number of Subjects Reporting AEs By Most Direct Relationship to Study Treatment: Possibly related (single oral dose 0.05 mg): 5 subjects | Number of Subjects Reporting AEs By Most Direct Relationship to Study Treatment: Probably not related (single oral dose 0.05 mg): 0 subjects | Number of Subjects Reporting AEs By Most Direct Relationship to Study Treatment: Probably related (single oral dose 0.05 mg): 0 subjects | No. of subjects reporting AEs (single oral dose 0.1 mg): 6 subjects | No. of subjects with AE Abdominal pain (single oral dose 0.1 mg): 1 subjects | No. of subjects with AE Cough (single oral dose 0.1 mg): 0 subjects | No. of subjects with AE Diarrhoea (single oral dose 0.1 mg): 0 subjects | No. of subjects with AE Dizziness (single oral dose 0.1 mg): 1 subjects | No. of subjects with AE Flushing (single oral dose 0.1 mg): 1 subjects | No. of subjects with AE Headache (single oral dose 0.1 mg): 5 subjects | No. of subjects with AE Jaw pain (single oral dose 0.1 mg): 3 subjects | No. of subjects with AE Muscle spasm (single oral dose 0.1 mg): 0 subjects | No. of subjects with AE Nausea (single oral dose 0.1 mg): 2 subjects | No. of subjects with AE Neck pain (single oral dose 0.1 mg): 1 subjects | No. of subjects with AE Oropharyngeal pain (single oral dose 0.1 mg): 0 subjects | No. of subjects with AE Pain in extremity (single oral dose 0.1 mg): 0 subjects | No. of subjects with AE Photophobia (single oral dose 0.1 mg): 0 subjects | No. of subjects with AE Vomiting (single oral dose 0.1 mg): 2 subjects | Number of Subjects Reporting AEs By Most Direct Relationship to Study Treatment: Definitely not related (single oral dose 0.1 mg): 1 subjects | Number of Subjects Reporting AEs By Most Direct Relationship to Study Treatment: Possibly related (single oral dose 0.1 mg): 4 subjects | Number of Subjects Reporting AEs By Most Direct Relationship to Study Treatment: Probably not related (single oral dose 0.1 mg): 0 subjects | Number of Subjects Reporting AEs By Most Direct Relationship to Study Treatment: Probably related (single oral dose 0.1 mg): 1 subjects | No. of subjects reporting AEs (single oral dose 0.2 mg): 6 subjects | No. of subjects with AE Abdominal pain (single oral dose 0.2 mg): 0 subjects | No. of subjects with AE Cough (single oral dose 0.2 mg): 0 subjects | No. of subjects with AE Diarrhoea (single oral dose 0.2 mg): 1 subjects | No. of subjects with AE Dizziness (single oral dose 0.2 mg): 0 subjects | No. of subjects with AE Flushing (single oral dose 0.2 mg): 2 subjects | No. of subjects with AE Headache (single oral dose 0.2 mg): 5 subjects | No. of subjects with AE Jaw pain (single oral dose 0.2 mg): 1 subjects | No. of subjects with AE Muscle spasm (single oral dose 0.2 mg): 1 subjects | No. of subjects with AE Nausea (single oral dose 0.2 mg): 3 subjects | No. of subjects with AE Neck pain (single oral dose 0.2 mg): 0 subjects | No. of subjects with AE Oropharyngeal pain (single oral dose 0.2 mg): 1 subjects | No. of subjects with AE Pain in extremity (single oral dose 0.2 mg): 1 subjects | No. of subjects with AE Photophobia (single oral dose 0.2 mg): 0 subjects | No. of subjects with AE Vomiting (single oral dose 0.2 mg): 6 subjects | Number of Subjects Reporting AEs By Most Direct Relationship to Study Treatment: Definitely not related (single oral dose 0.2 mg): 0 subjects | Number of Subjects Reporting AEs By Most Direct Relationship to Study Treatment: Possibly related (single oral dose 0.2 mg): 0 subjects | Number of Subjects Reporting AEs By Most Direct Relationship to Study Treatment: Probably not related (single oral dose 0.2 mg): 0 subjects | Number of Subjects Reporting AEs By Most Direct Relationship to Study Treatment: Probably related (single oral dose 0.2 mg): 6 subjects
